# According to US20230085307A1, “PYRIDAZINONE COMPOUND AND HERBICIDE” (NISSAN CHEMICAL CORPORATION, priority 2019, published 2023):
# Experiments:
# southern crabgrass = experiment: Test Example 5: herbicidal effect by foliage application, plastic box (Table 20, symbol F); assay type: in vivo, southern crabgrass (Digitaria ciliaris); details: foliage application, 320 g/ha, three weeks after application
# Method in brief: (§1)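 Sow seeds spot-wise in sterilized diluvial soil; cover with ~1.5 cm soil. Grow 14 days in greenhouse, 25° C. to 30° C. Spray foliage with emulsion diluted to predetermined amount. Rate effect after 3 weeks.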
# windgrass = experiment: Test Example 5: herbicidal effect by foliage application, plastic box (Table 20, symbol L); assay type: in vivo, windgrass (Apera spica-venti); details: foliage application, 320 g/ha, three weeks after application
# Method in brief: as §1
# persian speedwell = experiment: Test Example 5: herbicidal effect by foliage application, plastic box (Table 20, symbol R); assay type: in vivo, Persian speedwell (Veronica persica); details: foliage application, 320 g/ha, three weeks after application
# Method in brief: as §1
# wheat = experiment: Test Example 5: effect on crop by foliage application, plastic box (Table 20, symbol e); assay type: in vivo; details: 320 g/ha, three weeks after application
# Method in brief: as §1
# rice flat sedge = experiment: Test Example 3: herbicidal effect by foliage application, Wagner pot (Table 18, symbol E); assay type: in vivo, rice flat sedge (Cyperus iria); details: 320 g/ha
# Method in brief: (§2)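 Plants were sown in alluvial soil held under 0.1–0.5 cm standing water and grown 14 days in a greenhouse at 25–30 °C. An emulsifiable formulation, water-diluted to the set dose, was then sprayed onto the foliage, and effects were scored three weeks later using previously defined criteria.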
# rapeseed = experiment: Test Example 5: effect on crop by foliage application, plastic box (Table 20, symbol g); assay type: in vivo; details: 320 g/ha, three weeks after application
# Method in brief: as §1
# beet = experiment: Test Example 5: effect on crop by foliage application, plastic box (Table 20, symbol f); assay type: in vivo; details: 320 g/ha, three weeks after application
# Method in brief: as §1
# transplanted rice = experiment: Test Example 1: effect on crop, application before weed generation under submerged conditions (Table 16, symbol a); assay type: in vivo; details: amount of applied herbicide 320 g/ha
# Source text: [Test Example 1] Herbicidal Activity Test by Application before Weed Generation under Submerged Conditions After alluvial soil was placed into 1/10000 are of Wagner pot, water was poured and mixed to form a submerged condition having a water depth of 4 cm. Seeds of late watergrass, Japanese bulrush, and oval-leafed pondweed were sowed in a mixed manner in the aforementioned pot, and then 2.5 leaf stage rice plant seedlings were transplanted thereto. On the day of sowing seeds, the emulsion agent of the compound of the present invention prepared according to Formulation Example 2 was diluted with water so as to achieve a predetermined herbicide amount, and the diluted emulsion agent was applied to the surface of the water. The pot was placed in a greenhouse at 25° C. to 30° C. for growth of the plants. Three weeks after the herbicide application, the effect of the herbicide on each plant was evaluated according to the following criteria. Evaluation Criteria 5: Herbicidal rate of 90% or more (almost completely withered) 4: Herbicidal rate of 70% or more and less than 90% 3: Herbicidal rate of 40% or more and less than 70% 2: Herbicidal rate of 20% or more and less than 40% 1: Herbicidal rate of 5% or more and less than 20% 0: Herbicidal rate of 5% or less (almost no effect)
# Italian ryegrass = experiment: Test Example 5: herbicidal effect by foliage application, plastic box (Table 20, symbol K); assay type: in vivo, Italian ryegrass (Lolium multiflorum); details: foliage application, 320 g/ha, three weeks after application
# Method in brief: as §1
# Chinese sprangletop = experiment: Test Example 3: herbicidal effect by foliage application, Wagner pot (Table 18, symbol D); assay type: in vivo, chinese sprangletop (Leptochloa chinensis); details: 320 g/ha
# Method in brief: as §2
# soybean = experiment: Test Example 5: effect on crop by foliage application, plastic box (Table 20, symbol d); assay type: in vivo; details: 320 g/ha, three weeks after application
# Method in brief: as §1
# wild oat = experiment: Test Example 5: herbicidal effect by foliage application, plastic box (Table 20, symbol I); assay type: in vivo, wild oat (Avena fatua); details: foliage application, 320 g/ha, three weeks after application
# Method in brief: as §1
# oval-leafed pondweed = experiment: Test Example 1: herbicidal activity, application before weed generation under submerged conditions (Table 16, symbol C); assay type: in vivo, oval-leafed pondweed (Monochoria vaginalis); details: amount of applied herbicide 320 g/ha
# Method in brief: (§3)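 Alluvial soil was flooded to 4 cm depth, weed seeds were sown mixed and 2.5-leaf rice seedlings were transplanted. On sowing day, the compound's emulsion, diluted in water to a set dose, was applied to the water surface. Plants grew at 25–30 °C and were scored 0–5 after three weeks.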
# velvetleaf = experiment: Test Example 5: herbicidal effect by foliage application, plastic box (Table 20, symbol M); assay type: in vivo, velvetleaf (Abutilon theophrasti); details: foliage application, 320 g/ha, three weeks after application
# Method in brief: as §1
# redroot pigweed = experiment: Test Example 5: herbicidal effect by foliage application, plastic box (Table 20, symbol N); assay type: in vivo, redroot pigweed (Amaranthus retroflexus); details: foliage application, 320 g/ha, three weeks after application
# Method in brief: as §1
# chickweed = experiment: Test Example 5: herbicidal effect by foliage application, plastic box (Table 20, symbol P); assay type: in vivo, common chickweed (Stellaria media); details: foliage application, 320 g/ha, three weeks after application
# Method in brief: as §1
# blackgrass = experiment: Test Example 5: herbicidal effect by foliage application, plastic box (Table 20, symbol J); assay type: in vivo, blackgrass (Alopecurus myosuroides); details: foliage application, 320 g/ha, three weeks after application
# Method in brief: as §1
# late watergrass = experiment: Test Example 1: herbicidal activity, application before weed generation under submerged conditions (Table 16, symbol A); assay type: in vivo, late watergrass (Echinochloa oryzicola); details: amount of applied herbicide 320 g/ha
# Method in brief: as §3
# green foxtail = experiment: Test Example 5: herbicidal effect by foliage application, plastic box (Table 20, symbol G); assay type: in vivo, green foxtail (Setaria viridis); details: foliage application, 320 g/ha, three weeks after application
# Method in brief: as §1
# barnyard grass [1] = experiment: Test Example 5: herbicidal effect by foliage application, plastic box (Table 20, symbol H); assay type: in vivo, barnyard grass (Echinochloa crus-galli); details: foliage application, 320 g/ha, three weeks after application
# Method in brief: as §1
# directly sowed rice = experiment: Test Example 3: effect on crop by foliage application, Wagner pot (Table 18, symbol b); assay type: in vivo; details: 320 g/ha
# Method in brief: as §2
# barnyard grass [2] = experiment: Test Example 3: herbicidal effect by foliage application, Wagner pot (Table 18, symbol H); assay type: in vivo, barnyard grass (Echinochloa crus-galli); details: 320 g/ha
# Method in brief: as §2
# corn = experiment: Test Example 5: effect on crop by foliage application, plastic box (Table 20, symbol c); assay type: in vivo; details: 320 g/ha, three weeks after application
# Method in brief: as §1
# Japanese bulrush = experiment: Test Example 1: herbicidal activity, application before weed generation under submerged conditions (Table 16, symbol B); assay type: in vivo, Japanese bulrush (Schoenoplectus juncoides); details: amount of applied herbicide 320 g/ha
# Method in brief: as §3
# lambsquarters = experiment: Test Example 5: herbicidal effect by foliage application, plastic box (Table 20, symbol O); assay type: in vivo, lambsquarters (Chenopodium album); details: foliage application, 320 g/ha, three weeks after application
# Method in brief: as §1
structure (smiles),measurement,setting,value
"COc1ccc2c(-c3c(O)c(N(Cc4ccccc4)Cc4ccccc4)nn(C)c3=O)c(-c3ccccc3OC)sc2c1 [Compound No. 3-086, 6-(dibenzylamino)-5-hydroxy-4-(6-methoxy-2-(2-methoxyphenyl)benzo[b]thiophen-3-yl)-2-methylpyridazin-3(2H)-one]","F: southern crabgrass, herbicidal effect grade",southern crabgrass,0 (Herbicidal rate of 5% or less (almost no effect))
same,"L: windgrass, herbicidal effect grade",windgrass,0 (Herbicidal rate of 5% or less (almost no effect))
same,"R: persian speedwell, herbicidal effect grade",persian speedwell,0 (Herbicidal rate of 5% or less (almost no effect))
same,melting point,,163 to 166 °C
same,"e: wheat, effect on crop grade",wheat,0 (Herbicidal rate of 5% or less (almost no effect))
same,herbicidal effect on rice flat sedge (E),rice flat sedge,0 (Herbicidal rate of 5% or less (almost no effect))
same,"g: rapeseed, effect on crop grade",rapeseed,5 (Herbicidal rate of 90% or more (almost completely withered))
same,"f: beet, effect on crop grade",beet,0 (Herbicidal rate of 5% or less (almost no effect))
same,"Effect on crop, a: transplanted rice",transplanted rice,0 (Herbicidal rate of 5% or less (almost no effect))
same,"K: Italian ryegrass, herbicidal effect grade",Italian ryegrass,0 (Herbicidal rate of 5% or less (almost no effect))
same,herbicidal effect on Chinese sprangletop (D),Chinese sprangletop,0 (Herbicidal rate of 5% or less (almost no effect))
same,"d: soybean, effect on crop grade",soybean,3 (Herbicidal rate of 40% or more and less than 70%)
same,"I: wild oat, herbicidal effect grade",wild oat,0 (Herbicidal rate of 5% or less (almost no effect))
same,"Herbicidal effect, C: oval-leafed pondweed",oval-leafed pondweed,0 (Herbicidal rate of 5% or less (almost no effect))
same,"M: velvetleaf, herbicidal effect grade",velvetleaf,0 (Herbicidal rate of 5% or less (almost no effect))
same,"N: redroot pigweed, herbicidal effect grade",redroot pigweed,5 (Herbicidal rate of 90% or more (almost completely withered))
same,"P: chickweed, herbicidal effect grade",chickweed,0 (Herbicidal rate of 5% or less (almost no effect))
same,"J: blackgrass, herbicidal effect grade",blackgrass,3 (Herbicidal rate of 40% or more and less than 70%)
same,"Herbicidal effect, A: late watergrass",late watergrass,0 (Herbicidal rate of 5% or less (almost no effect))
same,"G: green foxtail, herbicidal effect grade",green foxtail,0 (Herbicidal rate of 5% or less (almost no effect))
same,"H: barnyard grass, herbicidal effect grade",barnyard grass [1],0 (Herbicidal rate of 5% or less (almost no effect))
same,effect on directly sowed rice (b),directly sowed rice,0 (Herbicidal rate of 5% or less (almost no effect))
same,herbicidal effect on barnyard grass (H),barnyard grass [2],3 (Herbicidal rate of 40% or more and less than 70%)
same,"c: corn, effect on crop grade",corn,0 (Herbicidal rate of 5% or less (almost no effect))
same,"Herbicidal effect, B: Japanese bulrush",Japanese bulrush,2 (Herbicidal rate of 20% or more and less than 40%)
same,"O: lambsquarters, herbicidal effect grade",lambsquarters,1 (Herbicidal rate of 5% or more and less than 20%)
